The data set has as its system human appendix. Nature of the data set: Clinical data on delivery and concentration of diatrizoate iodine in the appendix. The class given is in vivo. To be noted: following oral administration. How it is done:
The bioavailability and release profile of diatrizoate appear dependent on both concentration and pH, which explains why
Critical to efficacy of the composition are ‘gasless’ enteric conditions and neutralization of the harsh acidity of gastric secretions that appear to inhibit the transit of intact diatrizoate to the appendix. Clinical trials show optimal appendiceal visualization at a critical concentration of 2.8 mg % iodine; however 5 mg % is considered optimal for ideal image contrast.

Regarding `CC(=O)Nc1c(I)c(NC(C)=O)c(I)c(C(=O)O)c1I` [diatrizoate, 1-deoxy-1-(methylamino)-D-glucitol-3,5-diacetamido-2,4,6-triiodobenzoate], the “time until organically bound iodine is delivered and concentrated in the human appendix” value is reported as “approximately 50 minutes”.

Source of the values: patent publication US7378081B2, “Composition and method for direct visualization of the human appendix” (Vincon Research Enterprises, LLC, priority 2003, dated 2008).
